Results as given in US20190284136A1, “INDOLINE DERIVATIVES” (ViiV HEALTHCARE UK LIMITED, priority 2016, published 2019).

Test system: HIV
Experiment: Table 1 IC50 of the examples (assay method not given; patent concerns inhibiting HIV replication)
Format: cell-based
Details: Human immunodeficiency virus 1

Structure (SMILES)	IC50
Cc1ccc(Cl)c(C(=O)N2CCc3c2cc(C)c([C@H](OC(C)(C)C)C(=O)O)c3-c2cc(F)c3c(c2C)CCCO3)c1 (atropisomer, axis not shown) [Example 165, (S)-2-(tert-Butoxy)-2-((R)-1-(2-chloro-5-methylbenzoyl)-4-(8-fluoro-5-methylchroman-6-yl)-6-methylindolin-5-yl)acetic acid]	6 nM
Cc1cc2c(c(-c3cc(F)c4c(c3C)CCCO4)c1[C@H](OC(C)(C)C)C(=O)O)CCN2C(=O)c1cccc2c1OCCC2 (atropisomer, axis not shown) [Example 166, (S)-2-(tert-butoxy)-2-((R)-1-(chromane-8-carbonyl)-4-(8-fluoro-5-methylchroman-6-yl)-6-methylindolin-5-yl)acetic acid]	4 nM
COc1ccc(F)c(C(=O)N2CCc3c2cc(C)c([C@H](OC(C)(C)C)C(=O)O)c3-c2cc(F)c3c(c2C)CCCO3)c1 (atropisomer, axis not shown) [Example 167, (S)-2-(tert-Butoxy)-2-((R)-1-(2-fluoro-5-methoxybenzoyl)-4-(8-fluoro-5-methylchroman-6-yl)-6-methylindolin-5-yl)acetic acid]	7 nM
COc1ccc(C(=O)N2CCc3c2cc(C)c([C@H](OC(C)(C)C)C(=O)O)c3-c2cc(F)c3c(c2C)CCCO3)c(C)c1 (atropisomer, axis not shown) [Example 168, (S)-2-(tert-Butoxy)-2-((R)-4-(8-fluoro-5-methylchroman-6-yl)-1-(4-methoxy-2-methylbenzoyl)-6-methylindolin-5-yl)acetic acid]	13 nM
Cc1cc2c(c(-c3cc(F)c4c(c3C)CCCO4)c1[C@H](OC(C)(C)C)C(=O)O)CCN2C(=O)c1cccc2c1CCCO2 (atropisomer, axis not shown) [Example 169, (S)-2-(tert-Butoxy)-2-((R)-1-(chromane-5-carbonyl)-4-(8-fluoro-5-methylchroman-6-yl)-6-methylindolin-5-yl)acetic acid]	2 nM
COc1ccc(C(=O)N2CCc3c2cc(C)c([C@H](OC(C)(C)C)C(=O)O)c3-c2cc(F)c3c(c2C)CCCO3)cn1 (atropisomer, axis not shown) [Example 170, (S)-2-(tert-Butoxy)-2-((R)-4-(8-fluoro-5-methylchroman-6-yl)-1-(6-methoxynicotinoyl)-6-methylindolin-5-yl)acetic acid]	14 nM
COc1cnccc1C(=O)N1CCc2c1cc(C)c([C@H](OC(C)(C)C)C(=O)O)c2-c1cc(F)c2c(c1C)CCCO2 (atropisomer, axis not shown) [Example 171, (S)-2-(tert-Butoxy)-2-((R)-4-(8-fluoro-5-methylchroman-6-yl)-1-(3-methoxyisonicotinoyl)-6-methylindolin-5-yl)acetic acid]	14 nM
Cc1cc2c(c(-c3cc(F)c4c(c3C)CCCO4)c1[C@H](OC(C)(C)C)C(=O)O)CCN2C(=O)c1ccc(C(F)(F)F)nc1 (atropisomer, axis not shown) [Example 172, (S)-2-(tert-butoxy)-2-((R)-4-(8-fluoro-5-methylchroman-6-yl)-6-methyl-1-(6-(trifluoromethyl)nicotinoyl)indolin-5-yl)acetic acid]	6 nM
Cc1cc2c(c(-c3cc(F)c4c(c3C)CCCO4)c1[C@H](OC(C)(C)C)C(=O)O)CCN2C(=O)c1cccnc1C (atropisomer, axis not shown) [Example 173, (S)-2-(tert-butoxy)-2-((R)-4-(8-fluoro-5-methylchroman-6-yl)-6-methyl-1-(2-methylnicotinoyl)indolin-5-yl)acetic acid]	13 nM
COc1cc(C(=O)N2CCc3c2cc(C)c([C@H](OC(C)(C)C)C(=O)O)c3-c2cc(F)c3c(c2C)CCCO3)cc(F)c1F (atropisomer, axis not shown) [Example 174, (S)-2-(tert-Butoxy)-2-((R)-1-(3,4-Difluoro-5-methoxybenzoyl)-4-(8-fluoro-5-methylchroman-6-yl)-6-methylindolin-5-yl)acetic acid]	6 nM
Cc1cc2c(c(-c3cc(F)c4c(c3C)CCCO4)c1[C@H](OC(C)(C)C)C(=O)O)CCN2C(=O)C(=O)c1ccccc1 (atropisomer, axis not shown) [Example 175, (S)-2-(tert-Butoxy)-2-((R)-4-(8-fluoro-5-methylchroman-6-yl)-6-methyl-1-(2-oxo-2-phenylacetyl)indolin-5-yl)acetic acid]	90 nM
COc1cc(C(=O)N2CCc3c2cc(C)c([C@H](OC(C)(C)C)C(=O)O)c3-c2cc(F)c3c(c2C)CCCO3)ccc1C(F)(F)F (atropisomer, axis not shown) [Example 176, (S)-2-(tert-Butoxy)-2-((R)-4-(8-Fluoro-5-methylchroman-6-yl)-1-(3-methoxy-4-(trifluoromethyl)benzoyl)-6-methylindolin-5-yl)acetic acid]	5 nM
Cc1cc2c(c(-c3cc(F)c4c(c3C)CCCO4)c1[C@H](OC(C)(C)C)C(=O)O)CCN2C(=O)c1cccc2c1CCO2 (atropisomer, axis not shown) [Example 177, (S)-2-(tert-Butoxy)-2-((R)-1-(2,3-dihydrobenzofuran-4-carbonyl)-4-(8-fluoro-5-methylchroman-6-yl)-6-methylindolin-5-yl)acetic acid]	2 nM
Cc1cc2c(c(-c3cc(F)c4c(c3C)CCCO4)c1[C@H](OC(C)(C)C)C(=O)O)CCN2C(=O)c1ccc2c(c1)OCC2 (atropisomer, axis not shown) [Example 178, (S)-2-(tert-Butoxy)-2-((R)-1-(2,3-Dihydrobenzofuran-6-carbonyl)-4-(8-fluoro-5-methylchroman-6-yl)-6-methylindolin-5-yl)acetic acid]	4 nM
Cc1nc2cccc(C(=O)N3CCc4c3cc(C)c([C@H](OC(C)(C)C)C(=O)O)c4-c3cc(F)c4c(c3C)CCCO4)c2o1 (atropisomer, axis not shown) [Example 179, (S)-2-(tert-Butoxy)-2-((R)-4-(8-Fluoro-5-methylchroman-6-yl)-6-methyl-1-(2-methylbenzo[d]oxazole-7-carbonyl)indolin-5-yl)acetic acid]	12 nM
COc1c(C(=O)N2CCc3c2cc(C)c([C@H](OC(C)(C)C)C(=O)O)c3-c2cc(F)c3c(c2C)CCCO3)cccc1C(F)(F)F (atropisomer, axis not shown) [Example 180, (S)-2-(tert-Butoxy)-2-((R)-4-(8-Fluoro-5-methylchroman-6-yl)-1-(2-methoxy-3-(trifluoromethyl)benzoyl)-6-methylindolin-5-yl)acetic acid]	5 nM
COc1c(F)cccc1C(=O)N1CCc2c1cc(C)c([C@H](OC(C)(C)C)C(=O)O)c2-c1ccc2c(c1C)CCCO2 (atropisomer, axis not shown) [Example 181, (S)-2-(tert-Butoxy)-2-((R)-1-(3-fluoro-2-methoxybenzoyl)-6-methyl-4-(5-methylchroman-6-yl)indolin-5-yl)acetic acid]	2 nM
Cc1cc2c(c(-c3ccc4c(c3C)CCCO4)c1[C@H](OC(C)(C)C)C(=O)O)CCN2C(=O)c1cccc2c1OCCO2 (atropisomer, axis not shown) [Example 182, (S)-2-(tert-Butoxy)-2-((R)-1-(2,3-dihydrobenzo[b][1,4]dioxine-5-carbonyl)-6-methyl-4-(5-methylchroman-6-yl)indolin-5-yl)acetic acid]	5 nM
COc1cc(Cl)ccc1C(=O)N1CCc2c1cc(C)c([C@H](OC(C)(C)C)C(=O)O)c2-c1ccc2c(c1C)CCCO2 (atropisomer, axis not shown) [Example 183, (S)-2-(tert-Butoxy)-2-((R)-1-(4-chloro-2-methoxybenzoyl)-6-methyl-4-(5-methylchroman-6-yl)indolin-5-yl)acetic acid]	4 nM
COc1cc(C(=O)N2CCc3c2cc(C)c([C@H](OC(C)(C)C)C(=O)O)c3-c2ccc3c(c2C)CCCO3)ccc1C (atropisomer, axis not shown) [Example 184, (S)-2-(tert-Butoxy)-2-((R)-1-(3-methoxy-4-methylbenzoyl)-6-methyl-4-(5-methylchroman-6-yl)indolin-5-yl)acetic acid]	4 nM
COc1ccc(C(=O)N2CCc3c2cc(C)c([C@H](OC(C)(C)C)C(=O)O)c3-c2ccc3c(c2C)CCCO3)c(OC)c1 (atropisomer, axis not shown) [Example 185, (S)-2-(tert-Butoxy)-2-((R)-1-(2,4-dimethoxybenzoyl)-6-methyl-4-(5-methylchroman-6-yl)indolin-5-yl)acetic acid]	9 nM
COc1ccc(C(=O)N2CCc3c2cc(C)c([C@H](OC(C)(C)C)C(=O)O)c3-c2ccc3c(c2C)CCCO3)cc1OC (atropisomer, axis not shown) [Example 186, (S)-2-(tert-Butoxy)-2-((R)-1-(3,4-dimethoxybenzoyl)-6-methyl-4-(5-methylchroman-6-yl)indolin-5-yl)acetic acid]	6 nM
COc1ccc(C(=O)N2CCc3c2cc(C)c([C@H](OC(C)(C)C)C(=O)O)c3-c2ccc3c(c2C)CCCO3)cc1F (atropisomer, axis not shown) [Example 187, (S)-2-(tert-Butoxy)-2-((R)-1-(3-fluoro-4-methoxybenzoyl)-6-methyl-4-(5-methylchroman-6-yl)indolin-5-yl)acetic acid]	6 nM
Cc1ccccc1C(=O)N1CCc2c1cc(C)c([C@H](OC(C)(C)C)C(=O)O)c2-c1ccc2c(c1C)CCCO2 (atropisomer, axis not shown) [Example 188, (S)-2-(tert-Butoxy)-2-((R)-6-methyl-1-(2-methylbenzoyl)-4-(5-methylchroman-6-yl)indolin-5-yl)acetic acid]	5 nM
Cc1cc2c(c(-c3ccc4c(c3C)CCCO4)c1[C@H](OC(C)(C)C)C(=O)O)CCN2C(=O)c1cc(F)cc(F)c1 (atropisomer, axis not shown) [Example 189, (S)-2-(tert-Butoxy)-2-((R)-1-(3,5-difluorobenzoyl)-6-methyl-4-(5-methylchroman-6-yl)indolin-5-yl)acetic acid]	6 nM
COc1ccc(C(=O)N2CCc3c2cc(C)c([C@H](OC(C)(C)C)C(=O)O)c3-c2ccc3c(c2C)CCCO3)cc1C (atropisomer, axis not shown) [Example 190, (S)-2-(tert-Butoxy)-2-((R)-1-(4-methoxy-3-methylbenzoyl)-6-methyl-4-(5-methylchroman-6-yl)indolin-5-yl)acetic acid]	124 nM
